In ChEMBL document CHEMBL1125620, “Synthesis and biological evaluation of a series of substituted N-alkoxyimides and -amides as potential atypical antipsychotic agents” (J Med Chem, 1991):

Tests used:
[1] = system: Mus musculus; experiment: Inhibition of apomorphine induced mouse climbing, administered intraperitoneally; type: functional; details: ip
[2] = target: T1, 5-hydroxytryptamine receptor 1A (Rattus norvegicus, UniProt P19327); experiment: Affinity for 5-hydroxytryptamine 1A receptor labeled with [3H]8-OH-DPAT radioligand in hippocampus tissue; type: tissue-based
T1 sequence (P19327 whole entry): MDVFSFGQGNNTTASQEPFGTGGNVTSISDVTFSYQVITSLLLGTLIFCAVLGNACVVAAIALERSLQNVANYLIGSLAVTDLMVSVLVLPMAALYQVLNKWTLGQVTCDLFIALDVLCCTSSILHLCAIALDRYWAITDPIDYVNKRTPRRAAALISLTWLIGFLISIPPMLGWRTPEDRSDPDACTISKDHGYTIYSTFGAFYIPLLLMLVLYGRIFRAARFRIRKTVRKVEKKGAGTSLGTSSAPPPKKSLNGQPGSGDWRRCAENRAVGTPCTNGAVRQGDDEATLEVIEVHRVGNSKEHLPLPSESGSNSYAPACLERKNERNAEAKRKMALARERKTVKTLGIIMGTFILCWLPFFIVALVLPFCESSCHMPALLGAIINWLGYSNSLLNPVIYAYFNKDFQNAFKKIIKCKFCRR

[3] = target: Serotonin 2 (5-HT2) receptor (Rattus norvegicus, UniProt P30994+P08909+P14842); experiment: Compound was measured for affinity at 5-hydroxytryptamine 2 receptor in rat cortical by [3H]spiroperidol displacement.
[4] = target: D(2) dopamine receptor (Rattus norvegicus, UniProt P61169); experiment: Compound was measured for affinity at Dopamine receptor D2 labeled with [3H]spiroperidol radioligand in striatum tissue; type: tissue-based
[5] = target: D(1A) dopamine receptor (Rattus norvegicus, UniProt P18901); experiment: compound was measured as affinity for dopamine receptor D1 labeled with [3H]-SCH- 23390 radioligand in striatum tissue; type: tissue-based
[6] = system: Rattus norvegicus; experiment: In vivo inhibition of amphetamine induced stereotypy in rat by the compound administered intraperitoneally at […]; type: functional
[7] = system: Rattus norvegicus; experiment: In vivo activity administered intraperitoneally was determined by induction of catalepsy in rat at 30 mg/kg
[8] = target: T2, Alpha adrenergic receptor 1A and 1B (Rattus norvegicus, UniProt P15823+P43140); experiment: compound was measured as affinity for Alpha-1 adrenergic receptor labeled with [3H]WB-4101 radioligand in whole brain tissue
T2 sequence (P15823 whole entry): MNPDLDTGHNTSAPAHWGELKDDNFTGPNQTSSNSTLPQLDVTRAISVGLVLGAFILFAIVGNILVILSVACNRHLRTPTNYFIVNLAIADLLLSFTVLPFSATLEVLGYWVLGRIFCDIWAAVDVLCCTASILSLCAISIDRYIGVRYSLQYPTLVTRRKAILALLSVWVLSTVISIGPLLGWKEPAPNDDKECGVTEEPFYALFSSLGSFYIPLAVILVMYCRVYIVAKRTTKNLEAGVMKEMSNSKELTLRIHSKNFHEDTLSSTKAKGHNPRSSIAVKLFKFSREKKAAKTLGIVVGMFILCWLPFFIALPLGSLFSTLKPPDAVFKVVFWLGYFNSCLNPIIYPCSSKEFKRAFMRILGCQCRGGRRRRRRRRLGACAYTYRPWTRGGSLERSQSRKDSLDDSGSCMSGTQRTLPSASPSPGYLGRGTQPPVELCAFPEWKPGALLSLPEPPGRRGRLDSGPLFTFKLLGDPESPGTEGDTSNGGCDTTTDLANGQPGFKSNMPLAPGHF
T2 sequence (P43140 whole entry): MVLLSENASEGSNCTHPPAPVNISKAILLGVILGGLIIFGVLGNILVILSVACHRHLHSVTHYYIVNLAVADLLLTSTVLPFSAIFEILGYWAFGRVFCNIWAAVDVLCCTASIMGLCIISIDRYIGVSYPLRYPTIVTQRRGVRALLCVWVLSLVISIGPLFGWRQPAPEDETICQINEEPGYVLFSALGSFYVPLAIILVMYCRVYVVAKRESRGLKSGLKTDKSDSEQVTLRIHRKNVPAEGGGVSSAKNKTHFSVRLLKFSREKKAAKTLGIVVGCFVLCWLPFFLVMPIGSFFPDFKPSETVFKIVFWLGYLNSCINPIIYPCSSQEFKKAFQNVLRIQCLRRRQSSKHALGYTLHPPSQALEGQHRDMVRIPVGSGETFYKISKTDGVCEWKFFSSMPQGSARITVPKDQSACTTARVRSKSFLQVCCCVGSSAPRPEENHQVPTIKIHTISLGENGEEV

[9] = system: Rattus norvegicus; experiment: In vivo activity was measured by the pole climb avoidance in rat; type: functional
[10] = target: Sigma non-opioid intracellular receptor 1 (Rattus norvegicus, UniProt Q9R0C9); experiment: compound was measured as affinity for sigma receptor labeled with [3H]-SKF- […] radioligand in slide-mounted slices
[11] = system: Rattus norvegicus; experiment: In vivo inhibition of apomorphine induced stereotypy in rat by the compound administered intraperitoneally; type: functional; details: ip
[12] = system: Rattus norvegicus; experiment: In vivo activity administered intraperitoneally was determined by induction of catalepsy in rat at 40 mg/kg
[13] = system: Rattus norvegicus; experiment: In vivo activity administered intraperitoneally was determined by social interaction in rat at 1.0 mg/kg
[14] = target: 5-hydroxytryptamine receptor 1B (Rattus norvegicus, UniProt P28564); experiment: compound was measured for affinity against 5-hydroxytryptamine 1B receptor labelled with [3H]5-HT radioligand in striatum tissue; type: tissue-based
[15] = system: Rattus norvegicus; experiment: In vivo activity administered orally was determined by intracranial self stimulation in rat; type: functional; details: po
[16] = system: Rattus norvegicus; experiment: In vivo activity administered intraperitoneally was determined by pole climb escape failures in rat; type: functional; details: ip
[17] = system: Rattus norvegicus; experiment: In vivo activity administered intraperitoneally was determined by pole climb avoidance in rat; type: functional; details: ip
[18] = system: Rattus norvegicus; experiment: In vivo activity administered intraperitoneally was determined by intracranial self stimulation in rat; type: functional; details: ip
[19] = system: Rattus norvegicus; experiment: In vivo activity administered intraperitoneally was determined by induction of catalepsy in rat; type: functional; details: ip
[20] = system: Rattus norvegicus; experiment: In vivo inhibition of amphetamine induced stereotypy in rat by the compound administered intraperitoneally; type: functional; details: ip
[21] = system: Rattus norvegicus; experiment: In vivo activity was measured by the intracranial self stimulation in rat; type: functional
[22] = system: Rattus norvegicus; experiment: Activity administered intraperitoneally was determined by social interaction of rat at […]; type: functional
[23] = system: Rattus norvegicus; experiment: In vivo activity administered intraperitoneally was determined by induction of catalepsy in rat at […]; type: functional
[24] = system: Rattus norvegicus; experiment: In vivo activity administered intraperitoneally was determined by social interaction of rat at […]; type: functional

D(2) dopamine receptor, sequence (P61169 whole entry): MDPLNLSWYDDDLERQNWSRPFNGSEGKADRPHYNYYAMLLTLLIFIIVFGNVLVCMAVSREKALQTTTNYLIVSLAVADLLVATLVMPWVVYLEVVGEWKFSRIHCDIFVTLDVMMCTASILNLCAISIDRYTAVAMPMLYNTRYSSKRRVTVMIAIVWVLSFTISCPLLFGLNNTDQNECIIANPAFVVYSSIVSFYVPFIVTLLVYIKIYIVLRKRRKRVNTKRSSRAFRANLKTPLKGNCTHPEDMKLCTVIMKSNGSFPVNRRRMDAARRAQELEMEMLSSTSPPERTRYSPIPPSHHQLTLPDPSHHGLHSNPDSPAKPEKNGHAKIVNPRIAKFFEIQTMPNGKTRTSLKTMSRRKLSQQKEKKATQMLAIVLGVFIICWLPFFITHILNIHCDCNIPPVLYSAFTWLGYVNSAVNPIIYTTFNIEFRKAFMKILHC
5-hydroxytryptamine receptor 1B, sequence (P28564 whole entry): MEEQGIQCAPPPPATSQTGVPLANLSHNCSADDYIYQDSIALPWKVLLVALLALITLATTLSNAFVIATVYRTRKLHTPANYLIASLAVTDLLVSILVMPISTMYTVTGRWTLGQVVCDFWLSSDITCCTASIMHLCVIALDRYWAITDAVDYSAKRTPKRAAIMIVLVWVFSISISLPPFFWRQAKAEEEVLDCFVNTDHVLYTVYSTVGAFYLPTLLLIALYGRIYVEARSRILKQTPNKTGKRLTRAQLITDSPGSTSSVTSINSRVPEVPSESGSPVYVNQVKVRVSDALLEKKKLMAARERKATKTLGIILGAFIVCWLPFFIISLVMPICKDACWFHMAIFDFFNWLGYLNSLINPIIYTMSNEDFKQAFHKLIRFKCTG
Sigma non-opioid intracellular receptor 1, sequence (Q9R0C9 whole entry): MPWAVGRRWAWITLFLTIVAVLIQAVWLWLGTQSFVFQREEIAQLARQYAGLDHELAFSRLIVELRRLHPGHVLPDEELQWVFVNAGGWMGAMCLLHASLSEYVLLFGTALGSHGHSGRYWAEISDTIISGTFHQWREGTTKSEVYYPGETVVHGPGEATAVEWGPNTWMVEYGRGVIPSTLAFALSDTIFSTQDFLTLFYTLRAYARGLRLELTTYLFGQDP
D(1A) dopamine receptor, sequence (P18901 whole entry): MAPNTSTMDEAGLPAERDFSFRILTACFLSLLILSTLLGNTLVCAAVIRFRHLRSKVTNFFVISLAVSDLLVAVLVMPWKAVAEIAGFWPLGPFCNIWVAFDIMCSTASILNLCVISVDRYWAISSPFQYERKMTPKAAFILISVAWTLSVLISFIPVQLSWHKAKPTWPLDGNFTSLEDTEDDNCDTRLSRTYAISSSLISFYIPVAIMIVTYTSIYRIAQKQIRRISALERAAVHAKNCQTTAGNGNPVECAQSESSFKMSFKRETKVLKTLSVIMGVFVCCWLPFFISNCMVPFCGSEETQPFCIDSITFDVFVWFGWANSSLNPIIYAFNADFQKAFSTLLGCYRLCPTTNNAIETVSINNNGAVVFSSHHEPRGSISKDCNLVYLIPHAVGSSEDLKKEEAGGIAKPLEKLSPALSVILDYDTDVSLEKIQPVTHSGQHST

Row | Compound | ED50 [1] [mg/kg] | IC50 [2] [nM] | IC50 [3] [nM] | also measured
1 | CSc1cccc(N2CCN(CCCON3C(=O)c4ccccc4C3=O)CC2)c1 | > 20 | – | – | –
2 | O=C1CC2(CCCC2)CC(=O)N1OCCCN1CCN(c2cccc(C(F)(F)F)c2)CC1 | > 20 | 30 | – | –
3 | COc1ccccc1N1CCN(CCCON2C(=O)CC3(CCCC3)CC2=O)CC1 | 11 | 110 | 1190 | –
4 | O=C1c2ccccc2C(=O)N1OCCCN1CCN(c2nsc3ccccc23)CC1 | > 20 | > 20000 | – | –
5 | O=C1c2ccccc2C(=O)N1OCCCN1CCN(c2cccc(Cl)c2)CC1 | > 20 | – | – | –
6 | COc1ccccc1N1CCN(CCCON2C(=O)CC3(CCCC3)CC2O)CC1 (stereo unspecified) | > 20 | 60 | – | –
7 | O=C1CC2(CCCC2)CC(=O)N1OCCCN1CCN(C2=NS(=O)(=O)c3ccccc32)CC1 | > 20 | > 20000 | > 20000 | –
8 | O=C1c2ccccc2C(=O)N1OCCCN1CCN(c2cccc(C(F)(F)F)c2)CC1 | > 20 | – | – | IC50 [4]: > 20000 nM
9 | Cc1ccccc1N1CCN(CCCON2C(=O)c3ccccc3C2=O)CC1 | > 20 | – | – | –
10 | O=C1CC2(CCCC2)CC(=O)N1OCCCN1CCN(c2cccc(Cl)c2)CC1 | > 20 | 40 | – | –
11 | Cc1cccc(N2CCN(CCCON3C(=O)CC4(CCCC4)CC3=O)CC2)c1 | 26.5 | 90 | 390 | –
12 | O=C1CC2(CCCC2)CC(=O)N1OCCCN1CCN(c2ccccc2Cl)CC1 | > 20 | 220 | – | –
13 | COc1ccccc1N1CCN(CCCON2C(=O)c3ccccc3C2=O)CC1 | > 20 | 6900 | – | IC50 [4]: > 20000 nM
14 | CSc1cccc(N2CCN(CCCON3C(=O)CC4(CCCC4)CC3=O)CC2)c1 | > 20 | 50 | – | –
15 | Cc1cccc(N2CCN(CCCON3C(=O)c4ccccc4C3=O)CC2)c1 | > 20 | – | – | –
16 | O=C1CC2(CCCC2)CC(=O)N1OCCN1CCN(c2nsc3ccccc23)CC1 | > 20 | 970 | 240 | –

Row | Compound | ED50 [1] [mg/kg] | IC50 [2] [nM] | IC50 [3] [nM] | also measured
17 | O=C1CC2(CCCC2)CCN1OCCCN1CCN(c2nsc3ccccc23)CC1 | 17.8 | 30 | 10 | –
18 | COc1ccccc1N1CCN(CCCON2CCC3(CCCC3)CC2=O)CC1 | > 20 | 70 | 2700 | –
19 | O=C1CC2(CCCC2)CC(=O)N1OCCN1CCN(c2ncccn2)CC1 | > 20 | – | – | –
20 | O=C1CC2(CCCC2)CC(=O)N1OCCCN1CCN(c2ncccn2)CC1 | > 20 | 380 | – | –
21 | O=C1CC2(CCCC2)CC(O)N1OCCCN1CCN(c2nsc3ccccc23)CC1 (stereo unspecified) | > 20 | 80 | 10 | –
22 | O=C1c2ccccc2C(=O)N1OCCCN1CCN(c2ccc3ccccc3n2)CC1 | > 20 | – | – | –
23 | O=C1CC2(CCCC2)CC(=O)N1OCCCN1CCN(c2nsc3ccccc23)CC1 | 5.7 | 110 | 20 | IC50 [5]: 6600 nM; Inhibition [6]: 17%; Catalepsy [7]: 33%; IC50 [8]: 10 nM; ED50 [9]: 2.5 mg/kg; IC50 [10]: 1100 nM; ED50 [11]: 35.4 mg/kg; Catalepsy [12]: 83%; Increase [13]: 24%; IC50 [14]: 5530 nM; ED50 [15]: 12.5 mg/kg; ED50 [16]: > 20 mg/kg
24 | COc1ccccc1N1CCN(CCON2C(=O)CC3(CCCC3)CC2=O)CC1 | > 20 | 370 | 3200 | –
25 | O=C1CC2(CCCC2)CC(=O)N1OCCCN1CCN(c2nc3ccccc3s2)CC1 | > 20 | 2200 | 8100 | –
26 | Cc1cccc(N2CCN(CCCON3C(=O)CC4(CCCC4)CC3=O)CC2)c1C | 39.7 | 170 | 250 | –
27 | O=C1CC2(CCCC2)CC(=O)N1OCCCN1CCN(c2ccc3ccccc3n2)CC1 | > 20 | – | – | –
28 | CN1CCN(C2=Nc3cc(Cl)ccc3Nc3ccccc32)CC1 [CLOZAPINE] | 8.1 | – | – | ED50 [17]: 13.1 mg/kg; ED50 [18]: 9.1 mg/kg; ED50 [16]: > 80 mg/kg
29 | O=C(CCCN1CCC(O)(c2ccc(Cl)cc2)CC1)c1ccc(F)cc1 [HALOPERIDOL] | 0.25 | – | – | ED50 [17]: 0.53 mg/kg; ED50 [19]: 0.659 mg/kg; ED50 [11]: 0.31 mg/kg; ED50 [20]: 0.215 mg/kg; ED50 [21]: 0.077 mg/kg; ED50 [16]: 7.3 mg/kg
30 | Cc1nc2n(c(=O)c1CCN1CCC(c3noc4cc(F)ccc34)CC1)CCCC2 [RISPERIDONE] | 0.06 | – | – | ED50 [17]: 0.48 mg/kg; ED50 [19]: 5.7 mg/kg; ED50 [11]: 3.2 mg/kg; ED50 [18]: 0.13 mg/kg; Inhibition [22]: 27%; ED50 [16]: 1.3 mg/kg
31 | O=C1CC2(CCCC2)CC(=O)N1CCCCN1CCN(c2nsc3ccccc23)CC1 [TIOSPIRONE] | 0.84 | – | – | ED50 [17]: 0.93 mg/kg; Inhibition [23]: 67%; ED50 [11]: 3.7 mg/kg; ED50 [18]: 0.124 mg/kg; ED50 [16]: 2.77 mg/kg; Inhibition [24]: 34%
